PMC11274128, “Modification and Synergistic Studies of a Novel Frog Antimicrobial Peptide against Pseudomonas aeruginosa Biofilms” (Antibiotics, 2024)
Where two headings read alike, the source gives them in different places. Bridge positions count the residues as written; N and C are the ends. Ends that are not written are not given here.

What was measured:
A. baumannii (BAA 747) = assay: microbe, parasite or virus in culture; type: cell-based, Acinetobacter baumannii; details: planktonic A. baumannii BAA 747; for MIC: 37 °C, nine repeats of three independent experiments; for MBC: lowest concentration killing 99.9% of inoculum
Excerpt: (§1) The minimum inhibitory concentration (MIC) is the minimum concentration of an antimicrobial agent that prevents the visible growth of a bacterium or bacteria. The MIC is an important piece of data for research on new antimicrobial agents and helps in the effective selection of antibiotics to improve the success of treatment. The minimum bactericidal concentration (MBC) is defined as the lowest antibiotic concentration that kills 99.9% of the inoculum. This study mainly contained eight different microorganisms, which were Staphylococcus aureus (ATCC 6538), methicillin-resistant Staphylococcus aureus (NCTC 12493), Enterococcus faecalis (NCTC 12697), Escherichia coli (ATCC 8739), Klebsiella pneumoniae (ATCC 43816), Pseudomonas aeruginosa (ATCC CRM 9027), Acinetobacter baumannii (BAA 747), and Candida albicans (ATCC 10231). The bacteria were incubated in the compatible medium at 37 °C overnight.

[1] = test system: P. aeruginosa (ATCC CRM 9027); assay: microbe, parasite or virus in culture; type: cell-based, Pseudomonas aeruginosa; details: planktonic P. aeruginosa ATCC CRM 9027; for MIC: 37 °C, nine repeats of three independent experiments; for MBC: lowest concentration killing 99.9% of inoculum
Excerpt: as §1

horse red blood cells = horse red blood cells in PBS, 37 °C, 2 h, absorbance 570 nm; positive control 0.1% Triton
Procedure: The pure peptide was dissolved in PBS and then two-fold diluted to obtain a series of concentrations: 512, 256, 128, 64, 32, 16, 8, 4, and 2 μM. A positive control (0.1% Triton) and blank control (PBS) were used. Two millilitres of fresh horse red blood cells were washed in PBS until the supernatant became colourless and clear, and the mixture was then thoroughly mixed. Each mixture contained 100 μL of peptide solution or controls and 100 μL of horse red blood cells, which were then incubated at 37 °C for 2 h and centrifuged at 930× g for 10 min. Subsequently, 100 μL of supernatant from each tube was transferred into a 96-well plate, and the plate reader measured the absorbance at a wavelength of 570 nm. The haemolysis rate was calculated using the following formula:Percentage Haemolysis= (ASample − ABlank)/(APositive − ABlank) × 100%

E. coli (ATCC 8739) = assay: microbe, parasite or virus in culture; type: cell-based, Escherichia coli; details: planktonic E. coli ATCC 8739; for MIC: 37 °C, nine repeats of three independent experiments; for MBC: lowest concentration killing 99.9% of inoculum
Excerpt: as §1

[2] = test system: K. pneumoniae (ATCC 43816); assay: microbe, parasite or virus in culture; type: cell-based, Klebsiella pneumoniae; details: planktonic K. pneumoniae ATCC 43816; for MIC: 37 °C, nine repeats of three independent experiments; for MBC: lowest concentration killing 99.9% of inoculum
Excerpt: as §1

Yeast = assay: Geometric mean of MICs and TI value; type: cell-based, Candida albicans; details: C. albicans ATCC 10231
Procedure: (§2) The therapeutic potential of antimicrobial agents was valued based on their selectivity toward bacteria in reference to erythrocytes. The TI value was calculated from the results of antibacterial and haemolysis experiments of peptides using the following formula:TI value = HC10 / GMMICs.
(§3) GM was the geometric mean of MICs against all tested bacteria.

C. albicans (ATCC 10231) = type: cell-based, Candida albicans; details: yeast C. albicans ATCC 10231; for MIC: 37 °C, nine repeats of three independent experiments; for MBC: lowest concentration killing 99.9% of inoculum
Excerpt: as §1

S. aureus (ATCC 6538) = assay: microbe, parasite or virus in culture; type: cell-based, Staphylococcus aureus; details: planktonic S. aureus ATCC 6538; for MIC: 37 °C, nine repeats of three independent experiments; for MBC: lowest concentration killing 99.9% of inoculum
Excerpt: as §1

G− Bacteria = assay: Geometric mean of MICs and TI value; type: cell-based; details: geometric mean of MICs against tested Gram-negative bacteria
Procedure: as §2, §3

G+ Bacteria = assay: Geometric mean of MICs and TI value; type: cell-based; details: geometric mean of MICs against tested Gram-positive bacteria
Procedure: as §2, §3

MRSA (NCTC 12493) = assay: microbe, parasite or virus in culture; type: cell-based, methicillin-resistant Staphylococcus aureus; details: planktonic MRSA NCTC 12493; for MIC: 37 °C, nine repeats of three independent experiments; for MBC: lowest concentration killing 99.9% of inoculum
Excerpt: as §1

E. faecalis (NCTC 12697) = assay: microbe, parasite or virus in culture; type: cell-based, Enterococcus faecalis; details: planktonic E. faecalis NCTC 12697; for MIC: 37 °C, nine repeats of three independent experiments; for MBC: lowest concentration killing 99.9% of inoculum
Excerpt: as §1

Row | Substance | MIC (A. baumannii (BAA 747)) [µM] | MBC (A. baumannii (BAA 747)) [µM] | HC10 (horse red blood cells) [µM] | MIC (E. coli (ATCC 8739); read-out: MIC) [µM] | MBC (E. coli (ATCC 8739); read-out: MBC) [µM] | MIC ([2]; read-out: MIC) [µM] | MBC ([2]; read-out: MBC) [µM] | GM (geometric mean of MICs), Yeast (Yeast) [µM] | MIC (C. albicans (ATCC 10231)) [µM] | MBC (C. albicans (ATCC 10231)) [µM] | MIC (S. aureus (ATCC 6538)) [µM] | MBC (S. aureus (ATCC 6538)) [µM] | GM (geometric mean of MICs), G− Bacteria (G− Bacteria) [µM] | GM (geometric mean of MICs), G+ Bacteria (G+ Bacteria) [µM] | MIC (MRSA (NCTC 12493)) [µM] | MBC (MRSA (NCTC 12493)) [µM] | MIC (E. faecalis (NCTC 12697)) [µM] | MBC (E. faecalis (NCTC 12697)) [µM] | MIC ([1]; read-out: MIC) [µM] | MBC ([1]; read-out: MBC) [µM] | also measured
1 | GLLSGVLGAGKKIVAGLSGRA [Peptide 1924-A] | > 128 | > 128 | >256 | 64 | 128 | 64 | 128 | 64.00 | 64 | 128 | 128 | > 128 | 107.63 | 203.19 | > 128 | > 128 | > 128 | > 128 |  |  | MIC [1]: 128 µM; MBC [1]: > 128 µM
2 | GLLSGVLGAGKKIVCGLSGR- [Peptide 1885-R, Rana Box modified analogue of Nigrosin-6VL] | 128 | > 128 | >256 | 32 | 64 | 32 | 64 | 256.00 | > 128 | > 128 | 128 | > 128 | 45.25 | 128.00 | 64 | 64 | > 128 | > 128 | 32 | 64 | 
3 | GLLRGVLGAGKKIVCGLSGRC (disulfide 15-21 (inferred)) [Peptide 2057-C, N-terminus modified analogue of Nigrosin-6VL] | > 128 | > 128 | >256 | 16 | 32 | 64 | 128 | 256.00 | > 128 | > 128 | 128 | > 128 | 64.00 | 128.00 |  |  | > 128 | > 128 | 64 | 128 | MIC (MRSA (NCTC 12493); read-out: MIC): 64 µM; MBC (MRSA (NCTC 12493); read-out: MBC): 128 µM
4 | H-GLLSGVLGAGKKIVGLSGR-OH [Peptide 1782-R] | > 128 | > 128 | >256 |  |  |  |  | 256.00 | > 128 | > 128 | > 128 | > 128 | 215.27 | 256.00 | > 128 | > 128 | > 128 | > 128 |  |  | MIC [1]: > 128 µM; MBC [1]: > 128 µM; MIC (E. coli (ATCC 8739)): 128 µM; MBC (E. coli (ATCC 8739)): > 128 µM; MIC [2]: > 128 µM; MBC [2]: > 128 µM
5 | GLLSGVLGAGKKIVGLSGRC [Peptide 1885-C] | > 128 | > 128 | >256 | 16 | 32 | 64 | 128 | 256.00 | > 128 | > 128 | > 128 | > 128 | 64.00 | 256.00 | > 128 | > 128 | > 128 | > 128 | 64 | 128 | 
